Measurements from ChEMBL document CHEMBL1201862, “PubChem BioAssay data set” (2004).
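Interpolation was linear, between the two tested concentrations surrounding the appropriate level; five concentrations were tested over 48 hours in 96-well plates. GI50 marks 50% less growth.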 Active and inactive are the calls of the source. Rule as the data show it: active = GI50 up to about 1.1 µM and inactive = higher.

Tests used:
Assay in all cases: NCI-60 cell line screen, 48 h
XF498 = test system: XF498
SNB-78 = test system: SNB-78
DMS-114 = test system: DMS-114
HOP-18 = test system: HOP-18
LXFL 529 = test system: LXFL 529
RXF 631 = test system: RXF 631
DLD-1 = test system: DLD-1
BT-549 = test system: BT-549
KM-20L2 = test system: KM-20L2

Measured: GI50

[N-]=[N+]=Nc1c(Br)c(=O)[nH]c(=O)n1COCCO
inactive: XF498 > 100 µM | SNB-78 > 100 µM | DMS-114 > 100 µM | HOP-18 > 100 µM | LXFL 529 > 100 µM | RXF 631 > 100 µM | DLD-1 > 100 µM

Cc1cc(Cl)cc2c1NC(=O)C2(O)CC(=O)c1ccco1 (stereo unspecified)
inactive: BT-549 > 100 µM | XF498 > 100 µM | SNB-78 > 100 µM | DMS-114 > 100 µM | HOP-18 4.33 µM | LXFL 529 > 100 µM | RXF 631 > 100 µM | DLD-1 > 100 µM

O=C(CC(=O)N1N=C(c2ccccc2)C(/N=N/c2ccc(Cl)cc2)C1=O)Nc1ccccc1Cl (stereo unspecified)
inactive: XF498 35.7 µM | KM-20L2 80.9 µM | SNB-78 64 µM | DMS-114 90.6 µM | HOP-18 24.2 µM | LXFL 529 26.7 µM | RXF 631 40.6 µM | DLD-1 30.3 µM

NC(CCC(=O)NC(CSSCCCCS(=O)O)C(=O)NCC(=O)O)C(=O)O (stereo unspecified)
inactive: XF498 > 100 µM | KM-20L2 > 100 µM | SNB-78 > 100 µM | DMS-114 > 100 µM | HOP-18 > 100 µM | LXFL 529 > 100 µM | RXF 631 > 100 µM | DLD-1 > 100 µM

COC(=O)C(C(=O)C(N)=O)c1csc(-n2nc(-c3ccccc3)cc2-c2ccccc2)n1 (stereo unspecified)
inactive: XF498 25.2 µM | KM-20L2 27.4 µM | SNB-78 > 31.6 µM | DMS-114 12.8 µM | HOP-18 15.6 µM | LXFL 529 > 31.6 µM | RXF 631 > 10 µM | DLD-1 > 31.6 µM

Cc1ccc(-c2nc3ccccc3c(=O)n2NC2OC(CO)C(O)C(O)C2O)cc1 (stereo unspecified)
inactive: XF498 > 100 µM | KM-20L2 > 100 µM | SNB-78 > 100 µM | DMS-114 > 100 µM | HOP-18 > 100 µM | LXFL 529 > 100 µM | RXF 631 > 100 µM
